In paper PMC3411647 (PLoS ONE, 2012):

Key:
H3R [1] = target: T1, H3R (Homo sapiens, UniProt Q9Y5N1); test: H3R internalization, cell-surface ELISA in HEK-293 cells stably transfected with Flag-H3R; assay type: cell-based; conditions: 100 µM, 45 min at 37°C
T1 construct: expressed in transfected cells
Procedure: ELISA data are expressed as the percentage of receptors detected on the surface of agonist-untreated cells expressing H3R. Error bars represent the SEM for four replicates.
The cell surface expression of H3R was quantitatively assessed by ELISA and performed as described previously. Briefly, HEK-293 cells stably transfected with the pCMV-H3R construct were seeded in 48-well dishes coated with poly-L-lysine. […] Medium was aspirated and the cells were washed once with Tris-buffered saline (TBS). […] Cells were then incubated for 1 h with an alkaline phosphatase-conjugated monoclonal antibody directed against the Flag epitope and diluted 1∶1,000. Cells were washed 3 times, and antibody binding was visualized by adding 0.25 mL of an alkaline phosphatase substrate (Bio-Rad). Development was stopped by adding 0.1 mL of the substrate to a 96-well microtiter plate containing 0.1 mL of 0.4 M NaOH.

H3R-EGFP = target: T2, H3R-EGFP (Homo sapiens, UniProt Q9Y5N1); test: Recycling of internalized H3R-EGFP to the cell surface, confocal microscopy; assay type: cell-based; conditions: 20 µM ZEL-H16 or 500 µM histamine for 30 min, cycloheximide 100 µg/ml
T2 construct: expressed in transfected cells
Procedure: Figure 6 Localization of internalized H3R-EGFP stably expressed in HEK-293 cells and recycling of internalized H3R to the cell surface. […] All pictures shown are representative of at least three independent experiments.
HEK-293 cells stably expressing H3R-EGFP were seeded in covered glass-bottom 6-well plates. […] After fixing the cells with 4% paraformaldehyde for 10 min, cells were mounted in mounting reagent (DTT/PBS/glycerol). Confocal images were taken on a Zeiss LSM 510 microscope with an attached Axiovert 200 microscope and LSM5 computer system. Images were collected using QED camera software and processed with Adobe Photoshop.

H3R [2] = target: T3, H3R (Cavia porcellus, UniProt Q9JI35); test: Guinea-pig ileum bioassay, inhibition of electrically induced twitch
T3 construct: from tissue; host or cells: guinea-pig ileum segments
Procedure: Each point is the mean ± s.e.m. of three to six separate experiments.
The procedure used was as described previously. Adult male guinea pigs (300–500 g) were killed by cervical dislocation. The ileum was removed at a point 20 cm from the caecum and flushed with and placed in modified K–H buffer of following composition: 118 mM NaCl, 5.9 mM KCl, 1.2 mM CaCl2, 1.2 mM MgSO4, 1 mM Na2HPO4, 25 mM NaHCO3 and 10 mM D-glucose. Ileum segments (2.5–3 cm) were suspended in 20 ml organ baths containing K–H buffer maintained at 37°C and gassed with 95% O2/5% CO2. Contractile activity under stimulation (rectangular pulses of 15 V, 0.5 ms, and 0.1 Hz) was recorded using isometric transducers (Grass FTO3). […] Mepyramine ([…]) and famotidine ([…]) (Sigma-Aldrich, St. Louis, MO) were added to the K–H buffer to block postsynaptic H1 and presynaptic H2 receptors, respectively.

rat brain H3R = target: T4, rat brain H3R (Rattus norvegicus, UniProt Q9QYN8); test: Competitive/saturation binding with [3H]N-α-methylhistamine, rat cerebral cortex membranes; conditions: saturation binding, rat cerebral cortex
T4 construct: from tissue; host or cells: rat cerebral cortex membranes
Procedure: (§1) Figure 4 Competition binding experiments with [^3H]-N-α-methylhistamine. […] The presented data are the means ±SE of values from a single experiment performed in duplicate and are representative of three to six separate experiments.
(§2) The membranes (50 µg of protein) were incubated with [^3H] N-α-methylhistamine at various concentrations (from 0.03 nM to 50 nM) for saturation binding assays. For competitive binding assays, the membranes (50 µg of protein) were incubated with 10 nM [^3H] N-α-methylhistamine for recombinant hH3R or 2nM [^3H] N-α-methylhistamine for rat brain H3R in the presence of various compound concentrations in the buffer (50 mM Tris–HCl, pH 7.4). […] Following three washes, the membrane-bound radioactivity was measured on a Topcount (PerkinElmer) at 20°C. […] IC50 values were converted to Ki values using the Cheng-Prusoff equation. Each experiment was performed in duplicate and repeated three to six times. All data were analyzed by nonline arregression using GraphPad Prism version 4.0 software.

histamine H4 receptor = conditions: cited from earlier work
hH3R = target: T5, hH3R (Homo sapiens, UniProt Q9Y5N1); test: Saturation radioligand binding (Scatchard) of [3H]N-α-methylhistamine (0.03-50 nM) to membranes of HEK-293 cells expressing hH3R, 50 mM Tris-HCl pH 7.4, room temperature.
T5 construct: gene HRH3; recombinant, cDNA from human thalamus RNA (AF140538), stably expressed in HEK-293 cells; vectors pCMV-Flag and pEGFP-N1
Procedure: (§3) HEK-293 cells stably expressing H3R were harvested and resuspended in ice-cold 50 mM Tris-HCl (pH 7.4) containing a complete protease inhibitor cocktail tablet and mixed by inverting. The cell pellet was homogenized with a Polytron PT 1200 set at 4000 rpm and centrifuged at 1,000 g for 5 min. The supernatant was then centrifuged twice at 50,000 g for 30 min at 4°C. Finally, the resulting pellet was gently suspended in 50 mM Tris-HCl (pH 7.4) buffer and the membrane concentration was determined using Bio-Rad protein assays.
The membranes (50 µg of protein) were incubated with [^3H] N-α-methylhistamine at various concentrations (from 0.03 nM to 50 nM) for saturation binding assays. For competitive binding assays, the membranes (50 µg of protein) were incubated with 10 nM [^3H] N-α-methylhistamine for recombinant hH3R or 2nM [^3H] N-α-methylhistamine for rat brain H3R in the presence of various compound concentrations in the buffer (50 mM Tris–HCl, pH 7.4). The reaction mixtures were incubated for 90–120 min at room temperature to achieve binding equilibrium. Following three washes, the membrane-bound radioactivity was measured on a Topcount (PerkinElmer) at 20°C. […] IC50 values were converted to Ki values using the Cheng-Prusoff equation. […] All data were analyzed by nonline arregression using GraphPad Prism version 4.0 software.

[3] = target: T6, human histamine H3 receptor (Homo sapiens, UniProt Q9Y5N1); test: Competitive/saturation binding with [3H]N-α-methylhistamine, H3R/HEK-293 cell membranes
T6 construct: expressed in transfected cells
Procedure: as §1, §3, §2

H3R [4] = target: T1, H3R; test: ERK1/2 phosphorylation (Western blot) in HEK-293 cells stably expressing H3R; assay type: cell-based
Procedure: Figure 7 Phosphorylation of ERK1/2 induced by ZEL-H16 in H3R-expressing HEK-293 cells. […] Signals were quantified by densitometric image analysis and p-ERK was normalized to a loading control (ERK). […] Concentration -dependent phosphorylation signals were quantified by densitometric analysis and p-ERK levels were normalized to total ERK levels. […] C, The phosphorylation of ERK1/2 induced by ZEL-H16 could be entirely abolished by co-incubation with H3R antagonist thioperamide (***p<0.001). Data represent the mean ±SE of three independent experiments.
HEK-293 cells stably expressing human H3R were grown in a 6-well plate and were serum starved 2 h in serum-free culture medium prior to stimulation. Cells were stimulated with the indicated H3R ligands at the designated concentrations. Incubations were stopped at the indicated times by removing the stimulation medium by aspiration. The cells were washed in ice-cold PBS and subsequently lysed in 100 µl of lysis buffer [20 mM HEPES (pH 7.5), 10 mM EDTA, 150 mM NaCl, 1% Triton X-100, and one tablet of complete protease inhibitor (Roche, Indianapolis, IN) per 50 mL] at 4°C on a rocker for 30 min. The lysates were centrifuged and separated by sodium dodecyl sulfate-polyacrylamide (12%) gel electrophoresis (SDS-PAGE) and blotted onto polyvinylidene difluoride membranes. Membranes were blocked for 1 h at room temperature in TBST (10 mmol/L Tris, 150 mmol/L NaCl, 0.1% Tween-20, pH 8.0) buffer containing 5% (v/w) skim milk. Membranes were probed overnight with primary antibodies against p-ERK1/2 (1∶1,000; Cell Signaling, Danvers, MA) in TBST containing 5% (v/w) BSA, and then probed with horseradish peroxidase-labeled secondary antibody (1∶5,000) for 1 h at room temperature in TBST containing 5% (v/w) milk powder. Immunoreactivity was detected by ECL assays. The blots were stripped and reprobed using antibodies against total ERK1/2 (1∶2,000) (Cell Signaling, Danvers, MA) as a control.

mouse H3R = target: T7, mouse H3R (Mus musculus, UniProt P58406); test: ERK1/2 phosphorylation in neonatal mouse cortical neuron cultures; assay type: cell-based
T7 construct: endogenous in cells; host or cells: primary cortical neurons of neonatal ICR mice
Procedure: Figure 8 Phosphorylation of ERK1/2 induced by ZEL-H16 in mouse cortical neurons. A, Time-dependent phosphorylation of ERK1/2 induced by 5 µM ZEL-H16 in neonatal mouse cortical neuron cultures. B, The phosphorylation of ERK1/2 induced by 50 µM ZEL-H16 for 20 min was mostly abolished by 100 ng/mL PTX or 10 µM thioperamide. Signals were quantified by densitometric image analysis and p-ERK was normalized to a loading control (ERK). The signal at each point is expressed as the percentage of the maximal p-ERK signal induced by ZEL-H16. Data represent the mean ±SE of three independent experiments.
Neuronal cortical cultures were prepared from neonatal ICR mice. Cerebral cortices were dissociated in sterile Dulbecco’s phosphate-buffered saline (D-PBS; Sigma-Aldrich, St. Louis, MO), and the neurons were isolated in the same medium containing 0.5% trypsin at 37°C for 10 min. After centrifugation, dissociated neurons were re-suspended in neurobasal medium (NBM; Gibco, Carlsbad, CA) supplemented with 2% B-27 and 0.5 mmol/L-glutamine (Gibco, Carlsbad, CA) and then plated on 48-well plates at a density of approximately 1.3×10^6 per well. After 7 days of culture, the neurons were serum starved for approximately 3 h prior to drug treatment. […]

T1 sequence (Q9Y5N1 whole entry): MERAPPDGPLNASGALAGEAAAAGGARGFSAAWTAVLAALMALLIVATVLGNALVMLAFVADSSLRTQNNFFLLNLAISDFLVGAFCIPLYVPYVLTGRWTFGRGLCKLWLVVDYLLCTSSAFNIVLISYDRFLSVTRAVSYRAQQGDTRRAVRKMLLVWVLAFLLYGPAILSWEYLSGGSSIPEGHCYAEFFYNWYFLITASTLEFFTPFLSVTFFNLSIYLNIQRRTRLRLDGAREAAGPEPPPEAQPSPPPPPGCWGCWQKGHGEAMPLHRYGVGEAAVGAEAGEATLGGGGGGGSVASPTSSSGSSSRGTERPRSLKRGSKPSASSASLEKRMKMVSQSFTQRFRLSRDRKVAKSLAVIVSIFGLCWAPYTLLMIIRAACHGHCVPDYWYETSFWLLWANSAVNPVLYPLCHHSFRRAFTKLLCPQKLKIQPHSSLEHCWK
T3 sequence (Q9JI35 whole entry): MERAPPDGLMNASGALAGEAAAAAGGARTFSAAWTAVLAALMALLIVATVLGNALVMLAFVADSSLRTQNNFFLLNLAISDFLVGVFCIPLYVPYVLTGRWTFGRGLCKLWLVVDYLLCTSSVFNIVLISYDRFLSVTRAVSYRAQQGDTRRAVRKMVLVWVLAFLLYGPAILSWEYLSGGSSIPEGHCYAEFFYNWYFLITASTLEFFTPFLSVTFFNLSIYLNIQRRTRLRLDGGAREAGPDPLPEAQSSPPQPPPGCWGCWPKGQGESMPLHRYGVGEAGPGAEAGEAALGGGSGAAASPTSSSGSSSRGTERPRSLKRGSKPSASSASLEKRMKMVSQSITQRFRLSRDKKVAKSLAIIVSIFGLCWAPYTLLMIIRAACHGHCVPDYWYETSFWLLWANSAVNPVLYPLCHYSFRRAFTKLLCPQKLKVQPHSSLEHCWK
T4 sequence (Q9QYN8 whole entry): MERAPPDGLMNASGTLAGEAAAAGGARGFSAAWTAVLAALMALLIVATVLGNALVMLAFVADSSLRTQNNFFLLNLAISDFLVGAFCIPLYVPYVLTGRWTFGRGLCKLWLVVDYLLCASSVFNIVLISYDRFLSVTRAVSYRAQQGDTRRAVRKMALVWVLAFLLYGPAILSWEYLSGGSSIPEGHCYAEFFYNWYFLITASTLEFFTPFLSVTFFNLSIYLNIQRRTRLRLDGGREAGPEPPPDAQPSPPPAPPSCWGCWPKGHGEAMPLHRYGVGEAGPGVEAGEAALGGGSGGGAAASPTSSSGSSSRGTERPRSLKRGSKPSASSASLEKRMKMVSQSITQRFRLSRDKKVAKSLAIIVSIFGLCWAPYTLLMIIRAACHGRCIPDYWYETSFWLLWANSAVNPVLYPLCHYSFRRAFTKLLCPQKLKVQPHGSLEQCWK
T7 sequence (P58406 whole entry): as the sequence (Q9QYN8 whole entry) above, with T15A, A286T, A290G, R387H, I389V counted along it
T5 sequence (Q9Y5N1 whole entry): as the sequence (Q9Y5N1 whole entry) above
T2 sequence (Q9Y5N1 whole entry): as above
T6 sequence (Q9Y5N1 whole entry): as above

Q: Which results are given for `NCCc1c[nH]cn1` [histamine, reference compound]?
A: loss in the expression of the receptors on the cell surface (internalization) (H3R [1]): 18–20%; time for internalized H3R to recycle to the cell surface after agonist removal (H3R-EGFP): ≤ 1 h; efficacy of inhibition of the contractions of the guinea pig ileum (H3R [2]; electrically induced twitch, mepyramine and famotidine present): 54.52±0.99%; EC50 (H3R [2]; inhibition of electrically induced twitch, read-out: pD 2 (converted)): 95.5 nM

Q: With `CNCCc1cnc[nH]1` [[^3H]N-α-methylhistamine, reference compound] as the compound, how does the Kd (rat brain H3R) read?
A: 0.83 nM

Q: Which pKi (histamine H4 receptor) does the source give for `c1nc(CC2CCNCC2)c[nH]1` [immepip, 4-(1H-imidazol-4-ylmethyl)piperidine] here?
A: 7.66

Q: With `CNCCc1c[nH]cn1` [[^3H]N-α-methylhistamine, [3H]N-alpha-methylhistamine] as the compound, how does the Kd (hH3R) read?
A: 0.71 nM

Q: For `N=C(N)SCCc1c[nH]cn1` [imetit, S-[2-(4-imidazolyl)ethyl]isothiourea, reference compound], which Ki [3] is on record?
A: 0.9 ± 0.06 nM

Q: What about the “loss in the expression of the receptors on the cell surface (internalization)” value (H3R [1]) of the same compound?
A: 18–20%

Q: Which “effect on ERK1/2 phosphorylation induced by 50 µM ZEL-H16” value (H3R [4]) does the source give for `S=C(NC1CCCCC1)N1CCC(c2cnc[nH]2)CC1` [thioperamide] here?
A: completely abolished

Q: What about the “effect on ERK phosphorylation induced by 50 µM ZEL-H16 at 20 min” value (mouse H3R) of the same compound?
A: abolish most of the stimulatory effects
